According to patent publication US20220289668A1 (PHARMALEADS, priority 2019, published 2022):

Key:
[1] = target: T1, LTA4H (Homo sapiens, UniProt P09960); assay: LTA4 hydrolase assay, substrate (L)-Ala-β-naphthylamide; type: biochemical; settings: recombinant enzyme 0.6 μg/mL, substrate 1 mM, 50 mM Tris HCl pH 7.4, 100 mM NaCl, 37° C.; read-out: LTA4H (nM), inhibitory power Ki
T1 sequence (P09960 1-611): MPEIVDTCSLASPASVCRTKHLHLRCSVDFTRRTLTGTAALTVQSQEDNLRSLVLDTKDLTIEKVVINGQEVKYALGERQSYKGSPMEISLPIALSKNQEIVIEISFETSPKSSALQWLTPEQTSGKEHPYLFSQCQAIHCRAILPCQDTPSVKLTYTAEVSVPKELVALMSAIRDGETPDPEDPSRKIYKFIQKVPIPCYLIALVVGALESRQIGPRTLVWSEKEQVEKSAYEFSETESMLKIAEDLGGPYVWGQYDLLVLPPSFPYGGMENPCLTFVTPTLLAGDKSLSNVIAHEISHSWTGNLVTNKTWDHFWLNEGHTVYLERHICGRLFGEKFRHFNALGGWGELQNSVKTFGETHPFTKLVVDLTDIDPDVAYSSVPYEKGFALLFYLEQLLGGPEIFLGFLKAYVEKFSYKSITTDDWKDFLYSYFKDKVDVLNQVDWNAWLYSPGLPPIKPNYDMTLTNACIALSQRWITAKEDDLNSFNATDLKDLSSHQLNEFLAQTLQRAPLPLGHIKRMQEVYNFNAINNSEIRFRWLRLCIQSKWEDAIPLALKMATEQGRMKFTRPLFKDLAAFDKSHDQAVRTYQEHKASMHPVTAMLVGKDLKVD
Experimental: (§1) The claimed inhibitors were tested on different Zn^2+ peptidases representative of this family of enzymes, capable of inhibiting them, such as type 1 neprilysin (E.C.3.4.24.11, NEP-1), neutral aminopeptidase (E.C.3.4.11.2, APN) and LTA4H.
(§2) The assays are carried out on […] in the presence of fluorigenic substrates specific for each enzyme.
(§3) Generally speaking, the inhibitors are pre-incubated, in increasing concentrations, with the enzyme for 10 min, at 37° C. The substrate is then added and the mixture is incubated for 30 to 60 min at 37° C. The reaction is stopped at 4° C. and the reading of the fluorescence emitted is done by reading the Berthold Twinkle LS970B plate. An inhibition curve is then plotted as a function of the concentration of inhibitor using GraphPad software, then the Ki is determined from the Cheng Prusoff formula: Ki=IC50/(1+(S/Km)).
To determine the Ki values of the different inhibitors with regard to LTA4H, 0.6 μg/mL of recombinant enzyme were incubated beforehand for 30 minutes at 37° C. in 50 mM Tris HCl, pH 7.4, 100 mM NaCl, with increasing concentrations of inhibitor (from 10^−10 M to 10^−4 M of final concentration). The fluorescent substrate (L)-Ala-β-naphthylamide (1 mM) is added in a final volume of 100 μL and is incubated at 37° C. for 15 minutes. The fluorescence values are measured on a Berthold Twinkle LB 970 (λex=340 nm, λem=405 nm, energy of the lamp 10000). Samples containing 0% hydrolysis were obtained by adding the substrate to the buffer and samples having a relative activity of 100% were prepared without inhibitor. The percentage cleavage was evaluated and compared with a relative activity of 100%, and the IC50 values were determined as a consequence. The Ki values of the inhibitors (average of at least three double independent assays) were calculated using the equation Ki=IC50/(1+[S]/Km).

[2] = target: T2, Neprilysin (NEP), purified from rabbit kidney (Oryctolagus cuniculus, UniProt P08049); assay: Neprilysin (NEP) assay, fluorigenic substrate Dansyl-Gly-(NO2)Phe-β-Ala; type: biochemical; settings: rabbit kidney NEP 200 ng/mL, substrate 20 μM, 50 mM Tris pH 7.4, 37° C.; read-out: NEP (nM), inhibitory power Ki
T2 construct: Neprilysin, purified from rabbit kidney; from tissue; host or cells: rabbit kidney
T2 sequence (P08049 1-750): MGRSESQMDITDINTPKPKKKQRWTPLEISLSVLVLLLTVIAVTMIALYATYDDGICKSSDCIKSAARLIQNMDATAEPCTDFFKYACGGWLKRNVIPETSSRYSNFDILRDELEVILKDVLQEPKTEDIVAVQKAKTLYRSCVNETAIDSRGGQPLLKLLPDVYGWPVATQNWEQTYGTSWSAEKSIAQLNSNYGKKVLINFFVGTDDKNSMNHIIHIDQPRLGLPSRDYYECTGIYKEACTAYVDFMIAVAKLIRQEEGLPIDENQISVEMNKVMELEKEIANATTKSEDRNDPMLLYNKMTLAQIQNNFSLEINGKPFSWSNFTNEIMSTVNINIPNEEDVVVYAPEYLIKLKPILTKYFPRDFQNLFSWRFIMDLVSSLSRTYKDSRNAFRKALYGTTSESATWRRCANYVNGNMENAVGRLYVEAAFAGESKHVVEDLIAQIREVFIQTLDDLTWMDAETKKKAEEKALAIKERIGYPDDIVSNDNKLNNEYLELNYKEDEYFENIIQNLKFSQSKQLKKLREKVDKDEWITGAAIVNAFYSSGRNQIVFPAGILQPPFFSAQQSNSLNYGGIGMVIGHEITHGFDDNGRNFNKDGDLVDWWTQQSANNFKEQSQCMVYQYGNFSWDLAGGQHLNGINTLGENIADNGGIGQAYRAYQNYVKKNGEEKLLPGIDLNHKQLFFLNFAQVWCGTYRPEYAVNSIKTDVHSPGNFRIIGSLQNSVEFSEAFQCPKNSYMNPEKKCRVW
Experimental: as §1, §2, §3
Neprilysin, purified from rabbit kidney (Aubry M et al. (1987), Biochem Cell Biol 65, 398-404), is used at final 200 ng/mL in 50 mM Tris buffer pH 7.4. The substrate, Dansyl-Gly-(NO2)Phe-β-Ala (Goudreau N et al. (1994), Anal Biochem, 219, 87-95) (Km=37 μM), is dissolved in ethanol and is used at final 20 μM. Increasing concentrations (from 10^−10 to 10^−3 M) of inhibitors are pre-incubated for 15 min at 37° C. with NEP in 50 mM Tris buffer, pH 7.4. The substrate is next added and the incubation is continued for 60 min. The reaction is stopped by placing the plate in ice for 10 min. The reading of the fluorescence emitted is carried out in a fluorimeter at λex=355 nm, λem=535 nm.

[3] = target: T3, aminopeptidase N (APN), recombinant human enzyme (Homo sapiens, UniProt P15144); assay: Neutral aminopeptidase (APN) assay, substrate L-Ala-β-NA; type: biochemical; settings: APN-rh 50 ng/mL, substrate 50 μM, 50 mM Tris pH 7.4, 37° C.; read-out: APN (nM), inhibitory power Ki
T3 construct: purchased R&D System
T3 sequence (P15144 whole entry): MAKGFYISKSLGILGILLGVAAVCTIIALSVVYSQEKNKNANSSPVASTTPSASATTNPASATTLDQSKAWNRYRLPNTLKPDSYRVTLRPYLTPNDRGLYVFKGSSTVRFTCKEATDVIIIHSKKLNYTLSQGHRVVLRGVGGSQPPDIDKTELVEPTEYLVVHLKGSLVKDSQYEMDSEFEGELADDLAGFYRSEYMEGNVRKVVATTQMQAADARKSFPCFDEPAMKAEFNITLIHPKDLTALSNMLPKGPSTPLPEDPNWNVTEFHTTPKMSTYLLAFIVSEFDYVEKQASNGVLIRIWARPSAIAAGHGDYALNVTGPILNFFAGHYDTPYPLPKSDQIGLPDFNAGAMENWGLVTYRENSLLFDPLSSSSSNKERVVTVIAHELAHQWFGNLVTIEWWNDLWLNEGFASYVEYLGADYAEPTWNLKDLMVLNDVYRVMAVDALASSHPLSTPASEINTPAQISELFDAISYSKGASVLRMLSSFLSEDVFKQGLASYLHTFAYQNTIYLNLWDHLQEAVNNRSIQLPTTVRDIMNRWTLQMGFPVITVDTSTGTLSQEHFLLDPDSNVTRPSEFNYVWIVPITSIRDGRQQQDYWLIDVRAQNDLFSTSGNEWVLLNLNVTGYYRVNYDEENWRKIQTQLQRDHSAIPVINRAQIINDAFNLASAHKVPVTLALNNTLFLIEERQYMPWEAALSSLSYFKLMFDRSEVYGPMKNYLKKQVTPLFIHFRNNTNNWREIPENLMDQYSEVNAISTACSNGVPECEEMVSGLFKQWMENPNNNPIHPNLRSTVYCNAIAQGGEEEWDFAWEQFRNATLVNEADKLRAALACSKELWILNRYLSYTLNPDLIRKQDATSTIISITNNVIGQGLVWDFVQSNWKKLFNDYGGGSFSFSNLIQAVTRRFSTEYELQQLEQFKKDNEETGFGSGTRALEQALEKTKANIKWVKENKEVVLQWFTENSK
Experimental: as §1, §2, §3
The measurement of the inhibition of aminopeptidase N (APN) is carried out by use of the substrate L-Ala↓β-NA (50 μM, Sigma Aldrich). The inhibitory powers are determined by using recombinant human enzyme (rh) (50 ng/mL; R&D System). Increasing concentrations (from 10^−10 to 10^−3 M) of inhibitors are pre-incubated for 30 min at 37° C. with APN-rh in 50 mM Tris buffer, pH 7.4. The substrate is next added and the incubation is continued for 30 min at 37° C. The reaction is stopped by placing the plate in ice for 10 min. The reading of the emitted fluorescence is measured in a fluorimeter at λex=340 nm, λem=405 nm.

[4] = system: male OF1 mice; assay: Hot plate test on mice, intravenous administration; type: in vivo; settings: for analgesic response: mice

C[C@H](NC(=O)[C@H](Cc1ccc(-c2ccccc2)cc1)CN(O)C=O)C(=O)O
Ki [1]: 6.1 ± 0.7 nM | Ki [2]: 0.08 ± 0.01 nM | Ki [3]: 86 ± 8 nM

C[C@H](NC(=O)[C@@H](Cc1ccc(-c2ccccc2)cc1)CN(O)C=O)C(=O)O
Ki [1]: > 10000 nM | Ki [2]: 44.1 ± 2.2 nM | Ki [3]: 817 ± 80 nM

C[C@H](NC(=O)[C@H](Cc1ccccc1)CN(O)C=O)C(=O)O [Ia-1, (S)-2-((R)-2-benzyl-3-(N-hydroxyformamido)propanamido) propanoic Acid]
Ki [1]: 7.5 ± 0.4 nM | Ki [2]: 3.3 ± 0.7 nM | Ki [3]: 143 ± 9 nM

C[C@H](NC(=O)[C@@H](Cc1ccccc1)CN(O)C=O)C(=O)O [Ia-2, (S)-2-((S)-2-benzyl-3-(N-hydroxyformamido)propanamido) propanoic Acid]
Ki [2]: 17.7 ± 0.9 nM | Ki [3]: > 10000 nM

O=CN(O)C[C@@H](Cc1ccccc1)C(=O)N[C@@H](Cc1ccccc1)C(=O)O [Ib-1, (S)-2-((R)-2-benzyl-3-(N-hydroxyformamido)propanamido)-3-phenylpropanoic Acid]
Ki [1]: 26 ± 2 nM | Ki [2]: 0.5 ± 0.1 nM | analgesic response ([4]; Ib-1 10 mg/kg in association with THC 0.375 mg/kg, intravenous coadministration): 65% | analgesic response ([4]; compound Ib-1 alone, 10 mg/kg intravenous, vehicle EtOH/Tween 80/Water (1/1/8)): 10% | analgesic effect of the association (in words) ([4]; intravenous association of THC and Ib-1 at inactive doses, 10 min after injection, male OF1 mice): considerable synergic analgesic effect | Ki [3]: 24 ± 0.4 nM

O=CN(O)C[C@H](Cc1ccccc1)C(=O)N[C@@H](Cc1ccccc1)C(=O)O [Ib-2, (S)-2-((S)-2-benzyl-3-(N-hydroxyformamido)propanamido)-3-phenylpropanoic Acid]
Ki [2]: 23.1 ± 1.1 nM | Ki [3]: > 10000 nM

O=CN(O)C[C@@H](Cc1ccccc1)C(=O)N[C@H](CC(=O)O)Cc1ccccc1 [Ic-1, (S)-3-((R)-2-benzyl-3-(N-hydroxyformamido)propanamido)-4-phenyl butanoic Acid]
Ki [1]: 443 ± 75 nM | Ki [2]: 6.3 ± 0.3 nM | Ki [3]: 12 ± 1.7 nM

CCCCCc1cc(O)c2c(c1)OC(C)(C)[C@@H]1CCC(C)=C[C@@H]21 [THC, reference compound]
analgesic response ([4]; THC alone, 0.375 mg/kg intravenous): 12%
